Values quoted from earlier work, collected in patent publication US7468434B2, “Diazene-bridge crown ether lithium compounds and methods for their use” (The University of Hong Kong, priority 2004, dated 2008).

Tested on: retinal ganglion cells
Conditions: ocular hypertensive model

Substance: lithium chloride
- prevention of degeneration of RGC: could prevent degeneration of RGC
